Test: mn = molality of the nth substance listed, in mol/kg
Conditions: for electrical conductivity / mass density: 100 kPa, Liquid; for electrical conductivity: Direct current cell with electrodes; for mass density: Vibrating tube method; for surface tension liquid-gas: Ring tensiometer

CCCCCCCCCCCC[n+]1ccsc1.[Br-] [N-dodecylthiazolium bromide] + O
Conditions | electrical conductivity, 293.15 K [S/m] | electrical conductivity, 298.15 K [S/m] | electrical conductivity, 303.15 K [S/m] | mass density, 293.15 K [kg/m3] | mass density, 298.15 K [kg/m3] | surface tension liquid-gas, 303.15 K [mN/m]
m1 = 0.00122 | – | – | – | 998.24 | 997.08 | –
m1 = 0.00157 | 0.0131 | 0.0147 | 0.0164 | 998.27 | 997.1 | 60.2
m1 = 0.00191 | – | – | – | 998.29 | 997.12 | –
m1 = 0.00201 | 0.017 | 0.0189 | 0.0209 | 998.3 | 997.13 | 57.03
m1 = 0.00258 | – | – | – | 998.33 | 997.16 | –
m1 = 0.00299 | 0.0246 | 0.0276 | 0.0305 | 998.36 | 997.19 | 53.96
m1 = 0.00326 | – | – | – | 998.38 | 997.21 | –
m1 = 0.00407 | 0.033 | 0.0365 | 0.0402 | 998.43 | 997.26 | 49.57
m1 = 0.00429 | – | – | – | 998.45 | 997.28 | –
m1 = 0.00507 | 0.0421 | 0.0469 | 0.0517 | 998.5 | 997.33 | 43.38
m1 = 0.00548 | – | – | – | 998.53 | 997.36 | –
m1 = 0.00602 | 0.0483 | 0.0535 | 0.0589 | 998.57 | 997.39 | 41.31
m1 = 0.00698 | 0.0568 | 0.0632 | 0.0694 | 998.64 | 997.46 | 38.15
m1 = 0.00753 | 0.0603 | 0.0671 | 0.0734 | 998.68 | 997.5 | 37.87
m1 = 0.00905 | 0.0699 | 0.0779 | 0.0859 | 998.78 | 997.61 | 32.2
m1 = 0.01006 | 0.0754 | 0.0845 | 0.093 | 998.85 | 997.68 | 32.54
m1 = 0.01266 | 0.0892 | 0.1 | 0.117 | 999.01 | 997.84 | 32.07
m1 = 0.01513 | 0.0958 | 0.11 | – | 999.17 | 998 | 32.43
m1 = 0.01771 | 0.103 | 0.117 | – | 999.33 | 998.16 | 31.44
m1 = 0.01974 | 0.107 | 0.123 | – | 999.46 | 998.29 | 31.87
m1 = 0.02301 | 0.116 | 0.132 | – | 999.66 | 998.49 | –
m1 = 0.02601 | 0.123 | 0.14 | – | 999.84 | 998.67 | 32.42

Source: the NIST ThermoML archive (doi:10.1016/j.jct.2018.12.021)
